Assay results from ChEMBL document CHEMBL4033800, “Further Developments of the Phenyl-Pyrrolyl Pentane Series of Nonsteroidal Vitamin D Receptor Modulators as Anticancer Agents” (J Med Chem, 2018).

Experiments:
PC-3 = assay: Antiproliferative activity against human PC3 cells after 48 hrs by MTT assay; format: functional, cell-based; settings: PC-3, 48 h
L02 = assay: Antiproliferative activity against human L02 cells after 48 hrs by MTT assay; format: cell-based; settings: L02, 48 h
Caco-2 = assay: Antiproliferative activity against human Caco2 cells after 48 hrs by MTT assay; format: functional, cell-based; settings: Caco-2, 48 h
MCF7 = assay: Antiproliferative activity against human MCF7 cells after 48 hrs by MTT assay; format: functional, cell-based; settings: MCF7, 48 h
HepG2 = assay: Antiproliferative activity against human HepG2 cells after 48 hrs by MTT assay; format: functional, cell-based; settings: HepG2, 48 h

IC50 (PC-3)	IC50 (Caco-2)	IC50 (MCF7)	IC50 (HepG2)	Compound	IC50 (L02)
12.8 µM	> 50 µM	> 50 µM	> 50 µM	C=CCN(C)C(=O)c1ccc(C(CC)(CC)c2ccc(OCCC(O)(CC)CC)c(C)c2)n1CC	1.19 µM
23.8 µM	> 50 µM	> 50 µM	> 50 µM	CCn1c(C(=O)Nc2cccc(C(F)(F)F)c2)ccc1C(CC)(CC)c1ccc(OCCC(O)(CC)CC)c(C)c1	> 50 µM
> 50 µM	> 50 µM	> 50 µM	> 50 µM	CCn1c(C(=O)Oc2ccc(CC(=O)OC)cc2)ccc1C(CC)(CC)c1ccc(OCCC(O)(CC)CC)c(C)c1	> 50 µM
2.15 µM	0.49 µM	3.35 µM	0.11 µM	CCn1c(C(=O)NCCCN(C)C)ccc1C(CC)(CC)c1ccc(OCCC(O)(CC)CC)c(C)c1	2.42 µM
14.8 µM	> 50 µM	> 50 µM	> 50 µM	C#CC(C)OC(=O)c1ccc(C(CC)(CC)c2ccc(OCCC(O)(CC)CC)c(C)c2)n1CC (stereo not given)	> 50 µM
> 50 µM	> 50 µM	> 50 µM	> 50 µM	CCC(C)C(NC(=O)c1ccc(C(CC)(CC)c2ccc(OCCC(O)(CC)CC)c(C)c2)n1CC)C(=O)OC (stereo not given)	> 50 µM
3.09 µM	0.074 µM	2.87 µM	0.51 µM	CCn1c(C(=O)N(C)CCO)ccc1C(CC)(CC)c1ccc(OCCC(O)(CC)CC)c(C)c1	2.05 µM
11.7 µM	46.5 µM	19.7 µM	1.74 µM	CCn1c(C(=O)NC(C)C(=O)O)ccc1C(CC)(CC)c1ccc(OCCC(O)(CC)CC)c(C)c1 (stereo not given)	4.04 µM
7.87 µM	> 50 µM	12.6 µM	43.1 µM	CCn1c(C(=O)NC(C)CO)ccc1C(CC)(CC)c1ccc(OCCC(O)(CC)CC)c(C)c1 (stereo not given)	4.84 µM
> 50 µM	> 50 µM	> 50 µM	> 50 µM	CCn1c(C(=O)Nc2ccc(OC(F)(F)F)cc2)ccc1C(CC)(CC)c1ccc(OCCC(O)(CC)CC)c(C)c1	> 50 µM
2.42 µM	1.74 µM	0.67 µM	1.59 µM	CCn1c(C(=O)NCCN)ccc1C(CC)(CC)c1ccc(OCCC(O)(CC)CC)c(C)c1	2.94 µM
> 50 µM	> 50 µM	> 50 µM	> 50 µM	C#CCCOC(=O)c1ccc(C(CC)(CC)c2ccc(OCCC(O)(CC)CC)c(C)c2)n1CC	> 50 µM
7.14 µM	30.3 µM	3.21 µM	25.3 µM	CCOC(=O)CN(C)C(=O)c1ccc(C(CC)(CC)c2ccc(OCCC(O)(CC)CC)c(C)c2)n1CC	1.99 µM
11.2 µM	25.2 µM	10.2 µM	10.7 µM	CCn1c(C(=O)NC(CC(=O)O)C(=O)OC)ccc1C(CC)(CC)c1ccc(OCCC(O)(CC)CC)c(C)c1 (stereo not given)	7.59 µM
8.76 µM	40.2 µM	31.4 µM	24.8 µM	CCn1c(C(=O)NC(CO)CCO)ccc1C(CC)(CC)c1ccc(OCCC(O)(CC)CC)c(C)c1 (stereo not given)	3.04 µM
0.87 µM	1.14 µM	0.43 µM	0.24 µM	CCn1c(C(=O)NCCN(C)C)ccc1C(CC)(CC)c1ccc(OCCC(O)(CC)CC)c(C)c1	0.99 µM
> 50 µM	> 50 µM	> 50 µM	46.3 µM	CCn1c(C(=O)N(CCC#N)CCC#N)ccc1C(CC)(CC)c1ccc(OCCC(O)(CC)CC)c(C)c1	37.8 µM
28.4 µM	> 50 µM	29.1 µM	> 50 µM	CCC(C)C(CO)NC(=O)c1ccc(C(CC)(CC)c2ccc(OCCC(O)(CC)CC)c(C)c2)n1CC (stereo not given)	> 50 µM
